Experimental data reported in publication PMC9967275, “Screening the Pathogen Box to Discover and Characterize New Cruzain and TbrCatL Inhibitors” (Pathogens, 2023).

What was measured:
TbrCatL = molecular target: T1, TbrCatL (Trypanosoma brucei rhodesiense, UniProt Q95PM0); experiment: TbrCatL enzymatic inhibition assay (cleavage of fluorogenic substrate Z-FR-AMC); format: biochemical; details: for TbrCatL 0’ Inhibition / TbrCatL 10’ Inhibition: sheet "Screening results"
T1 construct: Conor Caffrey (University of California San Diego)
In short: (§1)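 Recombinant enzymes assayed by Z-Phe-Arg-AMC cleavage at 25 °C, fluorescence 340/440 nm over 5–7 min, with 10 min or no enzyme–compound preincubation.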

cruzain = cruzain (Trypanosoma cruzi, UniProt P25779); experiment: biochemical; details: for Cruzain 0’ Inhibition / Cruzain 10’ Inhibition: sheet "Screening results"
In short: as §1

[1] = 0’ (no pre-incubation), sheet Screening results
[2] = 10’ (pre-incubation), sheet Screening results
[3] = 0’ (pre-incubation time), Pathogen Box screening results
[4] = 10’ (pre-incubation time), Pathogen Box screening results
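Note: at 5 µM compound concentration.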

T1 sequence (Q95PM0 entry or part of it): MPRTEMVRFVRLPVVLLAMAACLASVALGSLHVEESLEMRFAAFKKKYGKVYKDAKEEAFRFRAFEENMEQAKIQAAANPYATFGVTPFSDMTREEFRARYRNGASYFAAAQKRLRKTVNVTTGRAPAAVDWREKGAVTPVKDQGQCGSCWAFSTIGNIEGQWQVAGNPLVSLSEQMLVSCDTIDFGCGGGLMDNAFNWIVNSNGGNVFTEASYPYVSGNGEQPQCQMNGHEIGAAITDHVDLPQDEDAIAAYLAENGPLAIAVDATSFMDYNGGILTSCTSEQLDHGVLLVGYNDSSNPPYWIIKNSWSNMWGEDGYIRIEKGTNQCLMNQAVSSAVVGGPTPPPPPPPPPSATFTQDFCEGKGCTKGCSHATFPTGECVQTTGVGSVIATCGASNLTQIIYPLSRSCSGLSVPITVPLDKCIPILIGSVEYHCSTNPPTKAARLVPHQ
Sequence of cruzain (P25779 123-337 limits assumed): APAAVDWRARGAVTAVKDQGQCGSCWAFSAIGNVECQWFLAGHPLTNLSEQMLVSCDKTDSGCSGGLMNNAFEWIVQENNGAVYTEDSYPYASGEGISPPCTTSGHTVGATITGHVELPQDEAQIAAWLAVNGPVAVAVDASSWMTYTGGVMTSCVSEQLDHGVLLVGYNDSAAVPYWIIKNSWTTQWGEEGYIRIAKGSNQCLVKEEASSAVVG

Compound: c1ccc2c(c1)CN(CC1CC1)CC1(CCN(Cc3c[nH]c4cnccc34)CC1)O2 [MMV023183]
- TbrCatL 0’ Inhibition (TbrCatL; 0’ (pre-incubation time)): 6%
- TbrCatL 10’ Inhibition (TbrCatL; 10’ (pre-incubation time)): 1.8%
- Cruzain 0’ Inhibition (cruzain; 0’ (pre-incubation time)): 3.5%
- Cruzain 10’ Inhibition (cruzain; 10’ (pre-incubation time)): 15%

Compound: O=C(Nc1ccccc1-c1nc2c(C(=O)O)cccc2o1)c1ccccc1 [MMV676162]
- TbrCatL 0’ Inhibition (TbrCatL; 0’ (pre-incubation time)): 2.6%
- TbrCatL 10’ Inhibition (TbrCatL; 10’ (pre-incubation time)): 6%
- Cruzain 0’ Inhibition (cruzain; 0’ (pre-incubation time)): 8%
- Cruzain 10’ Inhibition (cruzain; 10’ (pre-incubation time)): 9%

Compound: C[C@H]1CS(=O)(=O)CCN1/N=C/c1ccc([N+](=O)[O-])o1 [MMV001499]
- TbrCatL 0’ Inhibition (TbrCatL; 0’ (pre-incubation time)): 5%
- TbrCatL 10’ Inhibition (TbrCatL; 10’ (pre-incubation time)): 11%
- Cruzain 0’ Inhibition (cruzain; 0’ (pre-incubation time)): 7%
- Cruzain 10’ Inhibition (cruzain; 10’ (pre-incubation time)): 7.5%

Compound: CC(C)n1nc(-c2cc3c(Cl)cccc3[nH]2)c2c(N)ncnc21 [MMV688417]
- TbrCatL 0’ Inhibition (TbrCatL; 0’ (pre-incubation time)): -11%
- TbrCatL 10’ Inhibition (TbrCatL; 10’ (pre-incubation time)): -13%
- Cruzain 0’ Inhibition (cruzain; 0’ (pre-incubation time)): 5.6%
- Cruzain 10’ Inhibition (cruzain; 10’ (pre-incubation time)): -1.4%

Compound: Cn1c(=O)c2c(S(C)(=O)=O)snc2n(C)c1=O [MMV687251]
- TbrCatL 0’ Inhibition (TbrCatL; 0’ (pre-incubation time)): 2.7%
- TbrCatL 10’ Inhibition (TbrCatL; 10’ (pre-incubation time)): 0.4%
- Cruzain 0’ Inhibition (cruzain; 0’ (pre-incubation time)): 12%
- Cruzain 10’ Inhibition (cruzain; 10’ (pre-incubation time)): 2.8%

Compound: CC(=O)N(CCN(C(=O)c1ccc(F)cc1)c1ccccc1)c1ccccc1 [MMV676064]
- TbrCatL 0’ Inhibition (TbrCatL; 0’ (pre-incubation time)): -5%
- TbrCatL 10’ Inhibition (TbrCatL; 10’ (pre-incubation time)): -7%
- Cruzain 0’ Inhibition (cruzain; 0’ (pre-incubation time)): -6%
- Cruzain 10’ Inhibition (cruzain; 10’ (pre-incubation time)): 3%

Compound: O[C@@H](c1cc(C(F)(F)F)nc2c(C(F)(F)F)cccc12)[C@H]1CCCCN1 [MMV000016]
- TbrCatL Inhibition 0’ (TbrCatL; [1]): 2.4%
- TbrCatL Inhibition 10’ (TbrCatL; [2]): -2.6%
- Cruzain Inhibition 0’ (cruzain; [1]): -5.4%
- Cruzain Inhibition 10’ (cruzain; [2]): -9%

Compound: Cc1cc(C)n(-c2ccc(NC(=O)C3CCN(Cc4cnc(C)s4)CC3)cc2)n1 [MMV007625]
- TbrCatL 0’ Inhibition (TbrCatL; 0’ (pre-incubation time)): 1.5%
- TbrCatL 10’ Inhibition (TbrCatL; 10’ (pre-incubation time)): -1.8%
- Cruzain 0’ Inhibition (cruzain; 0’ (pre-incubation time)): 5%
- Cruzain 10’ Inhibition (cruzain; 10’ (pre-incubation time)): 1.6%

Compound: O=C(c1ccco1)N(CCCn1ccnc1)c1nc2c(Cl)cccc2s1 [MMV688936]
- TbrCatL Inhibition 0’ (TbrCatL; [1]): 19%
- TbrCatL Inhibition 10’ (TbrCatL; [2]): 0.6%
- Cruzain Inhibition 0’ (cruzain; [1]): 5.6%
- Cruzain Inhibition 10’ (cruzain; [2]): -0.2%

Compound: O=C1COCc2ccc(Br)cc2N1Cc1ccc(C(F)(F)F)cc1 [MMV032995]
- TbrCatL 0’ Inhibition (TbrCatL; 0’ (pre-incubation time)): -7%
- TbrCatL 10’ Inhibition (TbrCatL; 10’ (pre-incubation time)): -7%
- Cruzain 0’ Inhibition (cruzain; 0’ (pre-incubation time)): -5%
- Cruzain 10’ Inhibition (cruzain; 10’ (pre-incubation time)): 0.2%

Compound: O=C(CN1CCOCC1)Nc1ccc2ncnc(Nc3ccc(OCc4cccc(F)c4)c(Cl)c3)c2c1 [MMV688274]
- TbrCatL 0’ Inhibition (TbrCatL; 0’ (pre-incubation time)): 13%
- TbrCatL 10’ Inhibition (TbrCatL; 10’ (pre-incubation time)): 17%
- Cruzain 0’ Inhibition (cruzain; 0’ (pre-incubation time)): 5.7%
- Cruzain 10’ Inhibition (cruzain; 10’ (pre-incubation time)): 2.4%

Compound: O=C(NC1CC1)c1ccc(N2CCOc3ccc(Cl)cc32)s1 [MMV020537]
- TbrCatL Inhibition 0’ (TbrCatL; [1]): 8%
- TbrCatL Inhibition 10’ (TbrCatL; [2]): 6%
- Cruzain Inhibition 0’ (cruzain; [1]): 18%
- Cruzain Inhibition 10’ (cruzain; [2]): 9%

Compound: CC(C)(C)c1ccc(N[C@@H]2CCCC[C@H]2NC(=O)c2ccco2)cc1 [MMV675969]
- TbrCatL 0’ Inhibition (TbrCatL; 0’ (pre-incubation time)): -4.6%
- TbrCatL 10’ Inhibition (TbrCatL; 10’ (pre-incubation time)): -6%
- Cruzain 0’ Inhibition (cruzain; 0’ (pre-incubation time)): -8%
- Cruzain 10’ Inhibition (cruzain; 10’ (pre-incubation time)): -5%

Compound: CCN(CC)S(=O)(=O)c1ccc(C(=O)Nc2cc(C)nn2-c2nc(C)c(C)c(=O)[nH]2)cc1 [MMV595321]
- TbrCatL Inhibition 0’ (TbrCatL; [1]): -23%
- TbrCatL Inhibition 10’ (TbrCatL; [2]): -29%
- Cruzain Inhibition 0’ (cruzain; [1]): -13%
- Cruzain Inhibition 10’ (cruzain; [2]): -3.8%

Compound: CC(C)(C)OC(=O)N1CCC(Cn2nc(-c3cnc4ccccc4c3)c3c(N)ncnc32)CC1 [MMV688364]
- TbrCatL 0’ Inhibition (TbrCatL; 0’ (pre-incubation time)): -10%
- TbrCatL 10’ Inhibition (TbrCatL; 10’ (pre-incubation time)): -15%
- Cruzain 0’ Inhibition (cruzain; 0’ (pre-incubation time)): -14%
- Cruzain 10’ Inhibition (cruzain; 10’ (pre-incubation time)): 0%

Compound: COC(=O)c1c(NC(=O)c2c(F)c(F)c(F)c(F)c2F)sc2c1CCCCC2 [MMV461553]
- TbrCatL Inhibition 0’ (TbrCatL; [1]): -16%
- TbrCatL Inhibition 10’ (TbrCatL; [2]): 9%
- Cruzain Inhibition 0’ (cruzain; [1]): -34%
- Cruzain Inhibition 10’ (cruzain; [2]): -24%

Compound: CCOc1ccc(-c2nc(CNCCc3ccc(F)cc3)cs2)cc1 [MMV688938]
- TbrCatL 0’ Inhibition (TbrCatL; 0’ (pre-incubation time)): 3%
- TbrCatL 10’ Inhibition (TbrCatL; 10’ (pre-incubation time)): -3.6%
- Cruzain 0’ Inhibition (cruzain; 0’ (pre-incubation time)): 6%
- Cruzain 10’ Inhibition (cruzain; 10’ (pre-incubation time)): 12%

Compound: CC(=O)N1CCc2cc3nc(C)cc(C)c3cc21 [MMV054312]
- TbrCatL Inhibition 0’ (TbrCatL; [1]): 9%
- TbrCatL Inhibition 10’ (TbrCatL; [2]): 19%
- Cruzain Inhibition 0’ (cruzain; [1]): 10%
- Cruzain Inhibition 10’ (cruzain; [2]): 11%

Compound: CC(C)(C)c1cc(C(=O)Nc2cccnc2)cc(C(=O)Nc2cccnc2)c1 [MMV020982]
- TbrCatL Inhibition 0’ (TbrCatL; [1]): -6%
- TbrCatL Inhibition 10’ (TbrCatL; [2]): -7%
- Cruzain Inhibition 0’ (cruzain; [1]): 1.3%
- Cruzain Inhibition 10’ (cruzain; [2]): -0.5%

Compound: CCOC(=O)NC(=O)c1ccsc1NC(=O)c1nc2ccccc2s1 [MMV090930]
- TbrCatL Inhibition 0’ (TbrCatL; [1]): 1.3%
- TbrCatL Inhibition 10’ (TbrCatL; [2]): 0.3%
- Cruzain Inhibition 0’ (cruzain; [1]): -18%
- Cruzain Inhibition 10’ (cruzain; [2]): 3%

Compound: NS(=O)(=O)c1cccc(-c2ccc3ncc(N4CCOCC4)nc3c2)c1 [MMV023860]
- TbrCatL 0’ Inhibition (TbrCatL; 0’ (pre-incubation time)): -1.3%
- TbrCatL 10’ Inhibition (TbrCatL; 10’ (pre-incubation time)): 14%
- Cruzain 0’ Inhibition (cruzain; 0’ (pre-incubation time)): -5.3%
- Cruzain 10’ Inhibition (cruzain; 10’ (pre-incubation time)): 28%

Compound: Cc1ccc2oc(-c3cc(NC(=O)Cc4ccccc4)ccc3Cl)nc2c1 [MMV676509]
- TbrCatL Inhibition 0’ (TbrCatL; [1]): 11%
- TbrCatL Inhibition 10’ (TbrCatL; [2]): 12%
- Cruzain Inhibition 0’ (cruzain; [1]): 21%
- Cruzain Inhibition 10’ (cruzain; [2]): 5%

Compound: CC(C)(C)n1nc(Cc2ccc(F)c(Cl)c2)c2c(N)ncnc21 [MMV688852]
- TbrCatL Inhibition 0’ (TbrCatL; [1]): -2.7%
- TbrCatL Inhibition 10’ (TbrCatL; [2]): -13%
- Cruzain Inhibition 0’ (cruzain; [1]): 6%
- Cruzain Inhibition 10’ (cruzain; [2]): 0.5%

Compound: Cc1ccc2[nH]c3c(NCCN(C)C)ncnc3c2c1 [MMV006372]
- TbrCatL Inhibition 0’ (TbrCatL; [1]): 10%
- TbrCatL Inhibition 10’ (TbrCatL; [2]): 14%
- Cruzain Inhibition 0’ (cruzain; [1]): 27%
- Cruzain Inhibition 10’ (cruzain; [2]): 21%

Compound: CC(C)(C)n1nc(Cc2cccc3ccccc23)c2c(N)ncnc21 [MMV676599]
- TbrCatL 0’ Inhibition (TbrCatL; 0’ (pre-incubation time)): 4.6%
- TbrCatL 10’ Inhibition (TbrCatL; 10’ (pre-incubation time)): -5%
- Cruzain 0’ Inhibition (cruzain; 0’ (pre-incubation time)): 9%
- Cruzain 10’ Inhibition (cruzain; 10’ (pre-incubation time)): 11%

Compound: Nc1ncc(-c2ccc(C(F)(F)F)nc2)cc1-c1ccc(C(F)(F)F)nc1 [MMV668727]
- TbrCatL Inhibition 0’ (TbrCatL; [1]): 6.6%
- TbrCatL Inhibition 10’ (TbrCatL; [2]): -4.6%
- Cruzain Inhibition 0’ (cruzain; [1]): 11%
- Cruzain Inhibition 10’ (cruzain; [2]): -3%

Compound: CN(C(=O)c1cc2c(-c3cncnc3)cccc2[nH]1)c1ccccc1 [MMV024443]
- TbrCatL 0’ Inhibition (TbrCatL; 0’ (pre-incubation time)): -4.6%
- TbrCatL 10’ Inhibition (TbrCatL; 10’ (pre-incubation time)): -3.8%
- Cruzain 0’ Inhibition (cruzain; 0’ (pre-incubation time)): 5%
- Cruzain 10’ Inhibition (cruzain; 10’ (pre-incubation time)): 2.7%

Compound: Nc1nccc2ccc(-c3ccc4nccn4c3)cc12 [MMV023233]
- TbrCatL 0’ Inhibition (TbrCatL; 0’ (pre-incubation time)): 0.7%
- TbrCatL 10’ Inhibition (TbrCatL; 10’ (pre-incubation time)): 7%
- Cruzain 0’ Inhibition (cruzain; 0’ (pre-incubation time)): 11%
- Cruzain 10’ Inhibition (cruzain; 10’ (pre-incubation time)): 8%

Compound: CCOC(=O)c1cc(-c2csc(Nc3c(C)cc(C)cc3C)n2)on1 [MMV676461]
- TbrCatL Inhibition 0’ (TbrCatL; [1]): 6%
- TbrCatL Inhibition 10’ (TbrCatL; [2]): 15%
- Cruzain Inhibition 0’ (cruzain; [1]): -2.6%
- Cruzain Inhibition 10’ (cruzain; [2]): 4%

Compound: c1csc(-c2cnc3sc(NCC4CCOCC4)nn23)c1 [MMV010764]
- TbrCatL Inhibition 0’ (TbrCatL; [1]): 14%
- TbrCatL Inhibition 10’ (TbrCatL; [2]): 19%
- Cruzain Inhibition 0’ (cruzain; [1]): 14%
- Cruzain Inhibition 10’ (cruzain; [2]): 16%

Compound: COc1cccc(CC(=O)N2CCC(n3c(C)nc4ccc(F)cc43)CC2)c1 [MMV020081]
- TbrCatL 0’ Inhibition (TbrCatL; 0’ (pre-incubation time)): 1.6%
- TbrCatL 10’ Inhibition (TbrCatL; 10’ (pre-incubation time)): 18%
- Cruzain 0’ Inhibition (cruzain; 0’ (pre-incubation time)): 5%
- Cruzain 10’ Inhibition (cruzain; 10’ (pre-incubation time)): 10%

Compound: Cc1cc(C)nc(-n2nc(C)cc2Nc2ccccc2)n1 [MMV062221]
- TbrCatL 0’ Inhibition (TbrCatL; 0’ (pre-incubation time)): -32%
- TbrCatL 10’ Inhibition (TbrCatL; 10’ (pre-incubation time)): -72%
- Cruzain 0’ Inhibition (cruzain; 0’ (pre-incubation time)): -21%
- Cruzain 10’ Inhibition (cruzain; 10’ (pre-incubation time)): -3%

Compound: CC(C)(C)c1cnc(NC(=O)c2ccccc2O)s1 [MMV495543]
- TbrCatL Inhibition 0’ (TbrCatL; [3]): -9%
- TbrCatL Inhibition 10’ (TbrCatL; [4]): 6.5%
- Cruzain Inhibition 0’ (cruzain; [3]): -17%
- Cruzain Inhibition 10’ (cruzain; [4]): 3.4%
